row,melting point,Structure (SMILES)
1,212 to 214 °C,Cc1ccc(-c2cn(C)cc(-c3ccc(C)cc3)c2=O)cc1
2,173 to 175 °C,CCN1C=C(C(=O)O)C(=O)CC1c1ccc2c(c1)OCO2 (centres undefined)
3,194 °C,Fc1ccc(-c2nn3cccnc3c2-c2ccncc2)cc1
4,144 to 145 °C,Cc1nsc(NC(=O)Cc2ccc3oc(CC(C)(C)C)nc3c2)c1Cl
5,200 to 202 °C,CCOC(=O)c1cc2c(C(F)(F)F)cc(OCC(=O)O)cc2n1C
6,208 to 210 °C,COc1cccc2c1C(=O)N(C)CC(=O)N2
7,205 °C,COc1ccc(Cl)c(Oc2c(CCl)nc(N3CCOCC3)nc2NS(=O)(=O)c2ccc(C(C)C)cn2)c1
8,194 to 195 °C,COc1ccc(C2=NNC(=O)CC2)cc1Cl
9,153 to 154 °C,CCOC(Cc1ccc(OCc2nc(C3CC3)oc2C)c2ccsc12)C(=O)O (centres undefined)
10,164 °C,O=C1CCSC(=S)N1c1c(F)c(F)c(F)c(F)c1F
11,110 °C,CCNC=C(C(=O)OCC)C(=O)c1cc(F)c(F)c(C)c1F
12,228 to 229 °C,CC(F)(F)S(=O)(=O)c1c(C(N)=S)nn(-c2c(Cl)cc(C(F)(F)F)cc2Cl)c1N
13,125 to 126 °C,COC1=C(OC)C(=O)c2cc(Cl)ccc2C1=O
14,132 to 134 °C,Cc1cccc2ncc(C(=O)N3CCCC3)c(=O)n12
15,102 to 106 °C,Cc1ncsc1C(=O)Nc1ccc(-n2nc(C3CC3)cc2C2CC2)c(F)c1
16,126 to 127 °C,COc1ccc(-c2cn(CCCC#N)c3c(OC)ccc(OC)c3c2=O)cc1
17,206 to 208 °C,O=C1Nc2ccccc2C1=C(c1ccc(Cl)cc1)c1ccc(Cl)cc1

row,melting point,Structure (SMILES)
1,132 to 133 °C,FC(F)(F)c1ccc(-c2cc(Oc3ccc4cccnc4c3)ncn2)c(OCCN2CCOCC2)c1
2,145 to 146 °C,CCOC(=O)Cn1c(=O)c2cc(Cl)ccc2n(Cc2ccc(Br)cc2F)c1=O
3,165 to 166 °C,CN1CCN(C)c2c(N)cccc2C1=O
4,> 320 °C,Cc1noc(C2C(=O)Nc3cc(Cl)ccc3C2=O)n1 (centres undefined)
5,139 to 142 °C,CCC(=O)Nc1c(C#N)cnn1-c1nc(NCc2ccccc2)c(C(F)(F)F)cc1Cl
6,203 to 205 °C,CN(c1ncc2ncnc(Nc3ccc(F)c(Cl)c3)c2n1)[C@H]1CC[C@H](N)CC1
7,174 to 176 °C,NNc1nc2ccc(C(F)(F)F)cc2n(OCc2ccccc2)c1=O
8,285 to 290 °C,N#CC1=C(N)N(c2ccccc2)CC1=O
9,70 to 73 °C,Fc1ccc(F)c(C(Sc2ccc(Cl)cc2)c2ccc(C3OCCO3)cn2)c1 (centres undefined)
10,163 to 164 °C,CN1C(=O)N(c2nnc(C(C)(C)C)s2)C(=O)C1O (centres undefined)
11,173 to 174 °C,O=c1c2cc(Cl)ccc2nc2n1CCN2Cc1ccccc1Cl
12,181 to 182 °C,O=C(NCCO)c1cccc(-c2ccc3c(n2)C(Oc2ccc(Cl)cc2Cl)CC3)c1 (centres undefined)
13,208 °C,COc1ccc(Cn2c(=O)c(C#N)c(Cl)c3cc(Cl)cnc32)cc1
14,119 to 121 °C,Cc1nc2cnccc2n1-c1ccc(OCc2cccc(SCc3nc4cc(F)ccc4s3)c2)cc1
15,88 to 90 °C,CSc1c(-n2ccnc2)c(-c2ccc(Cl)c(Cl)c2)nn1C
16,133 to 134 °C,FC(F)(F)c1cccc(Nc2nc(NCc3ccco3)nc(-c3ccccc3)n2)c1

# Continued, compound first:
row,Structure (SMILES),melting point
1,COc1cc2nc(N3CCN(c4ccnc(N(C)C5CCCC5)n4)CC3)nc(N)c2cc1OC,333 to 334 °C
2,O=C(O)CCCCCCCNC(=O)C(CS)Cc1ccccc1 (centres undefined),81 to 83 °C
3,CC(=O)Nc1ccc(S(=O)(=O)Nc2cscn2)cc1,231 to 232 °C
4,Cc1ccc2ccccc2c1C1OC(=O)NC1=O (centres undefined),147 to 150 °C
5,CN(C)C(=O)c1nc2n(n1)-c1ccc(Cl)cc1C(c1ccccc1F)=NC2,180 to 182 °C
6,C[C@@H](OS(C)(=O)=O)C(=O)N1C(=O)N(C)C[C@H]1C(=O)OC(C)(C)C,97 to 100 °C
7,Cn1ccc2cc(-c3csc4ncnc(NCc5ccccn5)c34)ccc21,184 to 185 °C
8,Cc1nc(Cc2ccc([N+](=O)[O-])cc2)sc1C,93 to 94 °C
9,CCOc1ccc(Cc2cnc(N)nc2N)cc1OC,195 to 196 °C
10,CN1CC=C(c2cn(C)c3ccc(NS(C)(=O)=O)cc23)CC1,198 to 202 °C
11,CCCc1c(CSc2nnc(SCCCS(=O)(=O)CC(=O)O)s2)ccc(C(C)=O)c1O,122 to 125 °C
12,CC(Cl)(Cl)C(NC(=O)c1ccc(Cl)cc1)NC(=NC#N)Nc1ccc(Cl)nc1 (centres undefined),199 to 200 °C
13,c1ccc(CP(Cc2ccccc2)Cc2ccccc2-c2ccccc2CP(Cc2ccccc2)Cc2ccccc2)cc1,163 to 167 °C
14,Clc1ccc(NC2CCC3(CCNCC3)CC2)cc1Cl,128 to 132 °C
15,CCOc1ccc(S(=O)(=O)Nc2cccnc2Nc2ccccc2)cc1,161 to 162 °C
16,N#CCc1ccccc1Oc1ccc(Br)cc1,56 to 58 °C
17,O=C(O)CCC(=NO)c1ccc(-c2ccc(Cl)cc2)cc1,155 to 157 °C
18,Nc1cccc(COc2cccc3cccnc23)c1,146 to 147 °C
19,O=C(COc1cc(-c2ccccc2)nc2ccc(Cl)cc12)N1CCOCC1,182 °C
20,COC(=O)C1=C(C)NC(C)=C(C(=O)OC)C1c1cc(Br)ccc1OCC(=O)NCCO[N+](=O)[O-],166 to 167 °C
21,CCOCc1nc2c(N)nc3ccccc3c2n1Cc1cc(-c2ccccc2)on1,221 to 223 °C
22,CSC1COc2cc(NS(C)(=O)=O)c(Oc3ccccc3)cc2C1=O (centres undefined),126 to 128 °C

row,Structure (SMILES),melting point
1,COC(=O)c1ccc(Cc2cn(C)c3ccc(C=C(C)C(=O)O)cc23)c(OC)c1,182 to 183 °C
2,CCCN1C(=O)N2C[C@@H](Cc3ccccc3)N=C2c2[nH]c([C@H]3CC[C@H](CN)CC3)nc21,70 to 71 °C
3,CC(C)C(=O)N1CCC(NC(=O)c2ccccc2Oc2ccc(Cl)cc2Cl)CC1,51 to 54 °C
4,COC(=O)CC[C@H](NC(=O)c1ccc(CCn2cnc3nccc-3c2NO)cc1)C(=O)OC,170 to 172 °C
5,CCOc1nn(Cc2ccc(OCc3cn(-c4ccccn4)nc3C)cc2)cc1CCC(=O)O,126 to 127 °C
6,CC1N(CCCCCl)C(=O)C(C)(C)S1(=O)=O (centres undefined),71 to 73 °C
7,OCc1ccnc(F)c1,61 to 63 °C
8,CN(C)c1nc(=O)c(C(C)(C)C)nn1N,168 to 169 °C
9,COCCO[C@H]1c2ccn3c(C)c(C)nc3c2N[C@H](c2ccccc2)[C@H]1OC(=O)c1ccccc1,78 to 80 °C
10,CC(C)(O)C#Cc1cc(C(F)(F)F)cc(C(F)(F)F)c1,74.5 to 74.8 °C
11,Cc1ccc(S(=O)(=O)OCC(=O)CC2CCC(C)CC2)cc1 (centres undefined),42 to 43.5 °C
12,NC(N)=Nc1nc(-c2cccc(-c3n[nH]c(N)n3)n2)cs1,> 300 °C
13,Cc1ccc(Cc2cnc[nH]2)cc1NS(C)(=O)=O,170 °C
14,COc1ccc(S(=O)(=O)n2c(CCCC(=O)O)cc3nc(Cl)ccc32)c(C)c1,134 to 140 °C
15,COCn1c(Cl)c(Cl)c(C#N)c1Cl,48 to 49 °C
16,CON(c1ccc([N+](=O)[O-])cc1Cl)S(=O)(=O)c1cccc([N+](=O)[O-])c1,168 to 169 °C
17,CCCCC1(N(C)C)CCC(c2[nH]c3ccccc3c2C)(c2[nH]c3ccccc3c2CCNS(=O)(=O)C2CCCC2)CC1 (centres undefined),111 to 115 °C
18,CNC(=S)C1(c2cccc(C)n2)CCCCS1=O (centres undefined),234 °C
19,CON=C(C)c1ccc2nnn(Cc3ccc4ncccc4c3)c2n1,155 to 157 °C
20,CN(CCOc1ccc(C=O)cc1)c1nc2ccccc2o1,97 to 98 °C
21,C=CS(=O)(=O)N1CCC[C@H]1C(=O)OC(C)(C)C,84 to 87 °C
22,Cc1cc(C(=N)NO)ccc1-c1ccc(-c2nc3cc(C(=N)NO)ccc3[nH]2)cc1,300 to 302 °C

row,Structure (SMILES),melting point
1,Nc1cc(S(=O)c2ccccc2)ccc1Cl (centres undefined),89 to 90 °C
2,CCC1C(C)=NN=C(c2cc(OC)c(OC)c(OC)c2)c2cc(OC)c(OC)cc21 (centres undefined),152 to 155 °C
3,CCOc1cc(CCNC(=O)Cn2c(C#N)ccc2-c2ccc3c(c2)C(C)(C)OC(=O)N3)ccc1OC,160 to 162 °C
4,NCc1cc(=O)[nH]c(=O)[nH]1,295 to 297 °C
5,CC(C)Oc1cc(OC(C)C)c2c(=O)cc(Sc3ccc(O)cc3)oc2c1,234 to 236 °C
6,NC(=O)CCc1cc(-c2ccncc2)sc1-c1ccncc1,196 °C
7,CCCc1c(OCC(O)COc2cccc(NC(=O)C(=O)OCC)c2C#N)ccc(C(C)=O)c1O (centres undefined),172 to 174 °C
8,CNC(=O)C#Cc1ccccc1C,52 to 55 °C
9,CC(C)(C)c1cc(CN2CCN(c3ccc([N+](=O)[O-])cc3)CC2)cc(C(C)(C)C)c1O,178 °C
10,COc1ccccc1N1CCN(CC(O)COc2ccccc2CC(N)=O)CC1 (centres undefined),120 to 122 °C
11,O=C(Nc1cccc2[nH]ccc12)C1(OCC2CO2)C=C(Cl)C=CC1 (centres undefined),175 °C
12,CC(=O)SCCNC(=O)[C@H](CSC(=O)C(C)(C)C)NC(=O)C(C)C,101 to 103 °C
13,CC(Cc1ccc(Oc2cc(Oc3ccccc3)nc(N3CCN(Cc4ccccc4)CC3)n2)cc1)(Oc1ccccc1)C(=O)O (centres undefined),135 to 137 °C
14,COc1ccc([C@H](O)[C@@H](Cc2ccc(C(F)(F)F)cc2)NC(=O)CCc2ccccc2)cc1 (racemic),116 to 117 °C
15,CC(C)CCCCCCCCCCCC(=O)Nc1ccc(O)c(O)c1,85 to 86 °C
16,CCOC(=O)c1cccn1Cc1ccc(Cl)cc1[N+](=O)[O-],104 to 106 °C
17,CCCCNc1nc(C)c(C(=O)c2ccc(N)c([N+](=O)[O-])c2)s1,200 to 205 °C
18,CS(=O)(=O)c1ccc(Cc2ccc(CCNS(=O)(=O)c3ccc(Cl)cc3)c(CCC(=O)O)c2)cc1,105 to 107 °C
19,Oc1c(I)cc(-c2c3ccccc3cc3sc4ccccc4c23)cc1I,213 to 214 °C
20,CSC(C[C@H](NC(=O)[C@H](CC(C)C)NC(=O)OCc1ccccc1)C(C)=O)c1ccccc1 (some centres undefined),119 to 120 °C
21,Cc1cc(C)c(-c2nc(-c3ccc(O)cc3O)nc(-c3ccc(O)cc3O)n2)c(C)c1,230 to 234 °C
22,c1ccc(CNc2nc(-c3cccs3)nc3ccccc23)cc1,158 to 163 °C

# Source: a melting point compilation (Tetko et al.; mined from patent text by program, amines drawn as free bases though some values may be those of a salt)
